From patent publication US11926619B2, “Certain pladienolide compounds and methods of use” (EISAI R&D MANAGEMENT CO., LTD., priority 2018, dated 2024)
Like-named read-outs stand apart in the source and are kept apart here.

Experiments:
Format in all cases: cell-based
[1] = tested on: WiDr cells (colon cancer cells; wildtype SF3B1); test: Cell viability assay (CellTiter-Glo, 72 hr), WiDr cells; conditions: Homo sapiens
Experimental: (§1) Cells (WiDr and Panc05.04 obtained from ATCC) were seeded in 96-well plates, with 2000 cells/100 μL/well, and incubated overnight. Spent media was removed, and fresh media containing 9 different concentrations of compound (100 μL/well) were added, with DMSO concentration from compound stock solution adjusted to be 0.1%. Each compound treatment was done in duplicate or triplicate at each concentration.
(§2) Another plate with cells seeded was dedicated as a time zero (Tz) plate, to which was added 0.1% DMSO in media (100 μL/well) followed by CellTiter-Glo® reagent (Promega Corporation, Madison, Wisconsin) (50 μL/well) for ATP measurement as a surrogate of cell viability. Average value from measurement of multiple wells of this plate is used as Tz. Compound-treated plates were incubated for 72 hr at 37° C. Then, CellTiter-Glo® reagent (50 μL/well) was added and ATP was measured. Average value from measurement of the duplicate or triplicate compound-treated wells is used as Ti, and seeded plates with medium having 0.1% DMSO without compound is used as control growth (C).
(§3) Percentage growth inhibition/Percentage viability was calculated as:
(§4) [(Ti−Tz)/(C−Tz)]×100 for concentrations for which Ti>/=Tz
(§5) [(Ti−Tz)/Tz]×100 for concentrations for which Ti<Tz.
(§6) *time zero (Tz), control growth (C), and test growth in the presence of compound (Ti) Percentage growth inhibition/Percentage viability are plotted versus compound concentration to determine Emax.
Emax refers to the maximum achievable response to a compound in a tested dose range, with a negative value indicating cellular lethality. A larger negative Emax value indicates greater cellular lethality for a particular compound. […]

[2] = tested on: Panc 05.04 cells (pancreatic cancer cells; Q699H and K700E mutations in SF3B1); test: Cell viability assay (CellTiter-Glo, 72 hr), Panc 05.04 cells; conditions: for Emax: maximum achievable response in tested dose range, negative value = cellular lethality, read-out: Panc 05.04 (mt SF3B1 cells) Emax (%)
Experimental: as §1, §2, §3, §4, §5, §6
(§7) Emax refers to the maximum achievable response to a compound in a tested dose range, with a negative value indicating cellular lethality. A larger negative Emax value indicates greater cellular lethality for a particular compound.

[3] = tested on: WiDr-R cells (colon cancer cells; chemically-induced SF3B1 R1074H mutant); test: Cell viability assay (CellTiter-Glo, 72 hr), resistant WiDr-R cells (counter-screen); conditions: WiDr-R cells (SF3B1 R1074H mutation, resistant); read-out: WiDr-R GI50
Experimental: as §1, §2, §3, §4, §5, §6, §7
The counter-screening of compounds in this viability assay with a “resistant” WiDr-R cell line may indicate whether these compounds have off-target effect(s).

[4] = WiDr cells (wildtype SF3B1), read-out: WiDr GI50
[5] = Panc 05.04 cells (mutant SF3B1)
[6] = Panc 05.04 cells (mutant SF3B1), read-out: Panc 05.04 (mt SF3B1 cells), GI50
[7] = WiDr cells, 72 hr, CellTiter-Glo, read-out: WiDr GI50
[8] = Panc 05.04, Panc05.04 cells, 72 hr, CellTiter-Glo, read-out: Panc05.04 GI50

Row | Compound | GI50 [1, 4] | Emax [2, 5] | GI50 [2, 6] | GI50 [3] | GI50 ([1]; WiDr, read-out: WiDr GI50 (nM)) | GI50 [1, 7] | GI50 [2, 8] | cellular lethality (Emax comparison) ([2]; Panc 05.04 cells, mutant SF3B1 cell line)
1 | C/C(=C\C=C\Cc1ccccn1)[C@H]1OC(=O)C[C@H](O)CC[C@@](C)(O)[C@@H](OC(=O)N2CCN(C3CCCCCC3)CC2)/C=C/[C@@H]1C | 148 nM | 63.5% | > 4000 nM | > 1000 nM | – | – | – | –
2 | C/C(=C\C=C\[C@@H](C)COC(=O)N1CCCC1)[C@H]1OC(=O)C[C@@H](O)CC[C@@](C)(O)[C@@H](OC(=O)N2CCN(C)CC2)/C=C/[C@@H]1C | 25 nM | -95.4% | 12.3 nM | > 1000 nM | – | – | – | –
3 | C/C(=C\C=C\[C@@H](C)c1ccccn1)[C@H]1OC(=O)CCCC[C@@](C)(O)[C@@H](OC(=O)N2CCN(C)CC2)/C=C/[C@@H]1C | 31.6 nM | -75.7% | 33.9 nM | > 1000 nM | – | – | – | –
4 | C/C(=C\C=C\[C@@H](C)c1ccccn1)[C@H]1OC(=O)C[C@H](O)CC[C@@](C)(O)[C@@H](OC(=O)N2CC3CCC(C2)N3C2CCCCCC2)/C=C/[C@@H]1C | 52 nM | -95.7% | 65 nM | > 1000 nM | – | – | – | –
5 | C/C(=C\C=C\[C@@H](C)COC(=O)N1CCCC1)[C@H]1OC(=O)C[C@H](O)CC[C@H](C)[C@@H](OC(=O)N2CCN(C3CCCCCC3)CC2)/C=C/[C@@H]1C | 8.39 nM | -90.9% | 10.8 nM | > 1000 nM | – | – | – | –
6 | C/C(=C\C=C\[C@@H](C)COC(=O)N1CC[C@@H](O)C1)[C@H]1OC(=O)CCCC[C@@](C)(O)[C@@H](OC(=O)N2CCN(C)CC2)/C=C/[C@@H]1C | 11.2 nM | -94.6% | 4.44 nM | > 1000 nM | – | – | – | –
7 | C/C(=C\C=C\C(C)c1ccnc(N2CCCC2)n1)[C@H]1OC(=O)C[C@H](O)CC[C@@](C)(O)[C@@H](OC(=O)N2CCN(C3CCCCCC3)CC2)/C=C/[C@@H]1C (stereo partly shown) | 23 nM | -96.6% | 147 nM | 4310 nM | – | – | – | –
8 | C/C(=C\C=C\C(C)c1ccnc(N2CCCC2)n1)[C@H]1OC(=O)CCCCC[C@@H](OC(=O)N2CCN(C3CCCCCC3)CC2)/C=C/[C@@H]1C (stereo partly shown) | 810 nM | 52% | > 10000 nM | 4080 nM | – | – | – | –
9 | C/C(=C\C=C\CCOC(=O)N1CCCC1)[C@H]1OC(=O)C[C@H](O)CC[C@@](C)(O)[C@@H](OC(=O)N2CCN(C)CC2)/C=C/[C@@H]1C | 63.6 nM | – | 58.4 nM | > 5500 nM | – | – | – | –
10 | C/C(=C\C=C\[C@@H](C)c1ccccn1)[C@H]1OC(=O)C[C@H](O)CC[C@@](C)(O)[C@@H](OC(=O)N(C)C2CCN(C)CC2)/C=C/[C@@H]1C | 16.2 nM | -60.2% | 25.1 nM | > 1000 nM | – | – | – | –
11 | COCc1ccccc1CCC(C)/C=C/C=C(\C)[C@H]1OC(=O)C[C@H](O)CC[C@@](C)(O)[C@@H](OC(C)=O)/C=C/[C@@H]1C (stereo partly shown) | – | -39.5% | 427 nM | – | – | – | – | –
12 | C/C(=C\C=C\[C@@H](C)COC(=O)N1CC2CC2C1)[C@H]1OC(=O)C[C@H](O)CC[C@@](C)(O)[C@@H](OC(=O)N2CCN(C3CCCCCC3)CC2)/C=C/[C@@H]1C (stereo partly shown) | 8.28 nM | -84.2% | 18.6 nM | > 1000 nM | – | – | – | –
13 | CCC(C)N(C)C(=O)OC[C@H](C)/C=C/C=C(\C)[C@H]1OC(=O)C[C@H](O)CC[C@@](C)(O)[C@@H](OC(C)=O)/C=C/[C@@H]1C (stereo partly shown) | 308 nM | – | 587 nM | > 10000 nM | – | – | – | –
14 | C/C(=C\C=C\[C@@H](C)COC(=O)N1CC[C@@H](C)C1)[C@H]1OC(=O)C[C@H](O)CC[C@@](C)(O)[C@@H](OC(=O)N2CCN(C3CCCCCC3)CC2)/C=C/[C@@H]1C | 3.93 nM | -86.6% | 1.2 nM | > 1000 nM | – | – | – | –
15 | C/C(=C\C=C\[C@@H](C)COC(=O)N1CC[C@@H](F)C1)[C@H]1OC(=O)C[C@H](O)CC[C@@](C)(O)[C@@H](OC(=O)N2CCN(C3CCCCCC3)CC2)/C=C/[C@@H]1C | 7.64 nM | -92.2% | 22.5 nM | > 1000 nM | – | – | – | –
16 | CC(=O)O[C@H]1/C=C/[C@H](C)[C@@H](/C(C)=C/C=C/C(C)CCc2ccccc2)OC(=O)C[C@H](O)CC[C@@]1(C)O (stereo partly shown) | – | -26.4% | 827 nM | – | – | – | – | –
17 | C/C(=C\C=C\[C@@H](C)COC(=O)N1CCC(=O)C1)[C@H]1OC(=O)C[C@H](O)CC[C@@](C)(O)[C@@H](OC(=O)N2CCN(C3CCCCCC3)CC2)/C=C/[C@@H]1C | 4.77 nM | -93.6% | 2.85 nM | 449 nM | – | – | – | –
18 | C/C(=C\C=C\[C@@H](C)c1ccccn1)[C@H]1OC(=O)C[C@H](O)CC[C@@](C)(O)[C@@H](OC(=O)N2CCN(C3CCCCCC3)C(C)C2)/C=C/[C@@H]1C (stereo partly shown) | 133 nM | -60.4% | 126 nM | > 1000 nM | – | – | – | –
19 | CCOc1cccc(CCC(C)/C=C/C=C(\C)[C@H]2OC(=O)C[C@H](O)CC[C@@](C)(O)[C@@H](OC(C)=O)/C=C/[C@@H]2C)c1 (stereo partly shown) | – | -32% | 508 nM | – | – | – | – | –
20 | CCC(=O)[C@@H](C)[C@H]1O[C@@H]1C[C@@](C)(O)/C=C/C=C(\C)[C@H]1OC(=O)CC(=O)CC[C@@](C)(O)[C@@H](OC(C)=O)/C=C/[C@@H]1C | – | -81.7% | 97.7 nM | – | – | – | – | –
21 | C/C(=C\C=C\[C@@H](C)COC(=O)N1CC[C@@H](O)C1)[C@H]1OC(=O)CCCCC[C@@H](OC(=O)N(C)C)/C=C/[C@@H]1C | – | -83.7% | 139 nM | – | 154 nM | – | – | –
22 | C/C(=C\C=C\C(C)c1cccnc1)[C@H]1OC(=O)C[C@H](O)CC[C@@](C)(O)[C@@H](OC(=O)N2CCC(N3CCC(F)CC3)CC2)/C=C/[C@@H]1C (stereo partly shown) | – | 12.5% | 862 nM | – | – | – | – | –
23 | CC[Si](CC)(CC)O[C@@H]1CCN(c2nccc(C(C)/C=C/C=C(\C)[C@H]3OC(=O)CCCCC[C@@H](OC(=O)N4CCN(C5CCCCCC5)CC4)/C=C/[C@@H]3C)n2)C1 (stereo partly shown) | > 1000 nM | – | – | > 10000 nM | – | – | – | –
24 | CC(=O)O[C@H]1/C=C/[C@H](C)[C@@H](/C(C)=C/C=C/C(C)(O)CCc2ccc(O)cc2)OC(=O)C[C@H](O)CC[C@@]1(C)O (stereo partly shown) | – | -70.5% | 249 nM | – | – | – | – | –
25 | COCc1ccc(CCC(C)/C=C/C=C(\C)[C@H]2OC(=O)C[C@H](O)CC[C@@](C)(O)[C@@H](OC(C)=O)/C=C/[C@@H]2C)cc1 (stereo partly shown) | – | -67.3% | 321 nM | – | – | – | – | –
26 | C/C(=C\C=C\[C@H](C)c1cccnc1)[C@H]1OC(=O)C[C@H](O)CC[C@@](C)(O)[C@@H](OC(=O)N2CCN(C3CCCCCC3)CC2)/C=C/[C@@H]1C (single isomer, unassigned) [Compound 160] | – | – | – | – | – | 29.5 nM | 15.8 nM | –
27 | CC[C@H](O)[C@@H](C)[C@H]1O[C@@H]1C[C@@](C)(O)/C=C/C=C(\C)[C@H]1OC(=O)C[C@H](O)CC[C@@](C)(OC)[C@@H](OC(=O)N(C)CCN(C)C)/C=C/[C@@H]1C | – | -64.4% | 3.48 nM | – | – | – | – | –
28 | C/C(=C\C=C\[C@@H](C)c1cccnc1)[C@H]1OC(=O)C[C@H](O)CC[C@@](C)(O)[C@@H](OC(=O)N2CCN(C3CCCCCC3)CC2)/C=C/[C@@H]1C (single isomer, unassigned) [Compound 159] | – | – | – | – | – | 13.3 nM | 15 nM | –
29 | C/C(=C\C=C\[C@@H](C)CCC(=O)N1CCCC1)[C@H]1OC(=O)CC(O)CCC(C)(O)[C@@H](OC(=O)N2CCN(C)CC2)/C=C/[C@@H]1C (stereo in doubt) [Compound 1, [(2S,3S,4E,6S,7S,10S)-7,10-dihydroxy-3,7-dimethyl-2-[(2E,4E,6S)-6-methyl-9-oxo-9-pyrrolidin-1-ylnona-2,4-dien-2-yl]-12-oxo-1-oxacyclododec-4-en-6-yl] 4-methylpiperazine-1-carboxylate] | – | – | – | – | – | – | – | greater cellular lethality than Compound 7
